Data: patent US20060069132A1, “Azolecarboxamide herbicides” (priority 2004, published 2006)

Legend:
[1] = test system: small flower umbrella sedge; assay: Test B flooded paddy test; assay type: in vivo, Cyperus difformis; details: 1000 g ai/ha, scale 0 to 100 (0 no effect, 100 complete control)
Procedure, shortened: (§1)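 Scale 0–100: zero equals no visible effect, 100 complete control, judged by eye relative to controls. Timing: 13 to 15 days in greenhouse post-treatment. Growth stage at spraying: two leaves (paddy) or one to four leaves, 2–18 cm (postemergence).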

[2] = test system: morningglory; assay: Test B pre-/postemergence herbicide test; assay type: in vivo, Ipomoea coccinea; details: for Morningglory plant response rating: postemergence
Procedure, shortened: (§2)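 Formulation: non-phytotoxic solvent mix with surfactant. Timing: preemergence on seed and postemergence on 2–18 cm plants, applied concurrently. Readout after 13–15 d greenhouse: visual 0–100 control rating against controls.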

[3] = test system: velvetleaf; assay: Test B pre-/postemergence herbicide test; assay type: in vivo, Abutilon theophrasti; details: for Velvetleaf plant response rating: postemergence
Procedure, shortened: (§3)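 Herbicidal effect was judged by eye on a 0–100 scale after plants stood 13 to 15 days in the greenhouse following pre- or postemergence treatment with surfactant-containing formulations.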

[4] = test system: cocklebur; assay: Test B pre-/postemergence herbicide test; assay type: in vivo, Xanthium strumarium; details: for Cocklebur plant response rating: postemergence, scale 0 (no effect) to 100 (complete control)
Procedure, shortened: as §2

[5] = test system: ducksalad; assay: Test C flooded paddy test; assay type: in vivo, Heteranthera limosa
[6] = test system: barnyardgrass; assay: Test C flooded paddy test; assay type: in vivo, Echinochloa crus-galli
Procedure, shortened: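 Ratings (0 = no effect, 100 = complete control) come from visual comparison with untreated plants after 12 to 14 days in the greenhouse. Treatment was postemergence at the 1- to 4-leaf stage (2–18 cm), or at the 2-leaf stage for the flooded paddy barnyardgrass.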

[7] = test system: pigweed; assay: Test B pre-/postemergence herbicide test; assay type: in vivo, Amaranthus retroflexus; details: for Pigweed plant response rating: postemergence
Procedure, shortened: as §3

[8] = test system: large crabgrass; assay: Test B pre-/postemergence herbicide test; assay type: in vivo, Digitaria sanguinalis; details: for Crabgrass, Large plant response rating: postemergence
Procedure, shortened: as §3

[9] = test system: Surinam grass; assay: Test B pre-/postemergence herbicide test; assay type: in vivo, Urochloa decumbens; details: for Surinam Grass plant response rating: postemergence
Procedure, shortened: as §3

[10] = test system: corn; assay: Test B pre-/postemergence herbicide test; assay type: in vivo, Zea mays; details: for Corn plant response rating: postemergence
Procedure, shortened: as §3

[11] = test system: barnyardgrass; assay: Test B flooded paddy test; assay type: in vivo, Echinochloa crus-galli; details: 1000 g ai/ha, scale 0 to 100 (0 no effect, 100 complete control)
Procedure, shortened: as §1

[12] = test system: rice; assay: Test C flooded paddy test; assay type: in vivo, Oryza sativa
Procedure, shortened: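 Injury scored visually against controls on a 0 (no effect) to 100 (complete control) scale, 12 to 14 days after treatment in greenhouse. Flooded paddy plants treated at 2-leaf stage; postemergence plants at 1- to 4-leaf stage, 2 to 18 cm tall.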

[13] = test system: rice; assay: Test B pre-/postemergence herbicide test; assay type: in vivo, Oryza sativa; details: 0 = no effect, 100 = complete control, preemergence
Procedure, shortened: as §3

[14] = test system: lambsquarters; assay: Test B pre-/postemergence herbicide test; assay type: in vivo, Chenopodium album; details: for Lambsquarters plant response rating: postemergence
Procedure, shortened: as §3

[15] = test system: ducksalad; assay: Test B flooded paddy test; assay type: in vivo, Heteranthera limosa; details: 1000 g ai/ha, scale 0 to 100 (0 no effect, 100 complete control)
Procedure, shortened: as §1

[16] = test system: blackgrass; assay: Test B postemergence herbicide test; assay type: in vivo, Alopecurus myosuroides; details: postemergence, visual rating, scale 0 (no effect) to 100 (complete control)
Procedure, shortened: as §1

[17] = test system: giant foxtail; assay: Test B pre-/postemergence herbicide test; assay type: in vivo, Setaria faberi; details: for Foxtail, Giant plant response rating: postemergence
Procedure, shortened: as §3

[18] = test system: wild oat; assay: Test B postemergence herbicide test; assay type: in vivo, Avena fatua; details: postemergence
Procedure, shortened: (§4)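 Each value is a visual 0–100 response rating taken against controls 13 to 15 days after treatment in the greenhouse. Plants received formulated chemical postemergence at the 1- to 4-leaf stage or, in flooded paddy, at the 2-leaf stage.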

[19] = test system: smallflower umbrella sedge; assay: Test C flooded paddy test; assay type: in vivo, Cyperus difformis
[20] = test system: barnyardgrass; assay: Test B pre-/postemergence herbicide test; assay type: in vivo, Echinochloa crus-galli; details: for Barnyardgrass plant response rating: postemergence, scale 0 (no effect) to 100 (complete control)
Procedure, shortened: as §2

[21] = test system: rice; assay: Test B flooded paddy test; assay type: in vivo, Oryza sativa; details: 1000 g ai/ha, scale 0 to 100 (0 no effect, 100 complete control)
Procedure, shortened: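 Treated at 2-leaf (paddy) or 1–4-leaf, 2–18 cm (postemergence); greenhouse 13–15 d; visual score vs control, 0 none to 100 complete control; dash = not tested.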

[22] = test system: wheat; assay: Test B postemergence herbicide test; assay type: in vivo, Triticum aestivum; set-up: key to Wheat plant response rating: 0 = no effect, 100 = complete control; details: postemergence
Procedure, shortened: as §4

[23] = 125 g ai/ha, 0 = no effect, 100 = complete control, preemergence
[24] = 500 g ai/ha, visual rating, 0 = no effect, 100 = complete control, preemergence
[25] = 125 g ai/ha, visual rating, scale 0 (no effect) to 100 (complete control)
[26] = 500 g ai/ha, scale 0 to 100, 0 is no effect, 100 is complete control
[27] = 125 g ai/ha, scale 0 to 100 (0 no effect, 100 complete control)
[28] = 250 g ai/ha, scale of 0 to 100, 0 is no effect, 100 is complete control
[29] = 500 g ai/ha, visual rating after 12 to 14 days, scale 0 to 100 (0 no effect, 100 complete control)

SMILES: CCNC(=O)c1cc(NC(=O)c2cc(C(C)(C)C)nn2CC)c(F)cc1F [Compound 252]
- Sedge, Umbrella plant response rating [1]: 80
- Morningglory plant response rating (0 to 100 scale) [2, 23]: 0
- Plant response rating, Morningglory [2, 24]: 0
- Morningglory plant response rating [2, 25]: 20
- Morningglory plant response rating [2, 26]: 20
- Velvetleaf plant response rating (0 to 100 scale) [3, 23]: 0
- Plant response rating, Velvetleaf [3, 24]: 60
- Velvetleaf plant response rating [3, 25]: 30
- Velvetleaf plant response rating [3, 26]: 30
- Cocklebur plant response rating (0 to 100 scale) [4, 23]: 0
- Plant response rating, Cocklebur [4, 24]: 0
- Cocklebur plant response rating ([4]; 125 g ai/ha, visual rating): 20
- Cocklebur plant response rating ([4]; 500 g ai/ha, visual rating): 40
- Ducksalad plant response rating ([5]; 62 g ai/ha, scale 0 to 100): 0
- Ducksalad plant response rating [5, 27]: 0
- Ducksalad plant response rating [5, 28]: 15
- Plant response rating, Ducksalad [5, 29]: 80
- Barnyardgrass plant response rating ([6]; 62 g ai/ha, scale 0 to 100 (0 no effect, 100 complete control)): 0
- Barnyardgrass plant response rating [6, 27]: 0
- Barnyardgrass plant response rating [6, 28]: 15
- Plant response rating, Barnyardgrass [6, 29]: 45
- Plant response rating, Pigweed [7, 24]: 100
- Pigweed plant response rating [7, 25]: 20
- Pigweed plant response rating [7, 26]: 30
- Crabgrass, Large plant response rating (0 to 100 scale) [8, 23]: 80
- Plant response rating, Crabgrass, Large [8, 24]: 100
- Crabgrass, Large plant response rating [8, 25]: 0
- Crabgrass, Large plant response rating [8, 26]: 10
- Surinam Grass plant response rating (0 to 100 scale) [9, 23]: 10
- Plant response rating, Surinam Grass [9, 24]: 70
- Surinam Grass plant response rating [9, 25]: 10
- Surinam Grass plant response rating [9, 26]: 20
- Corn plant response rating (0 to 100 scale) [10, 23]: 0
- Plant response rating, Corn [10, 24]: 60
- Corn plant response rating [10, 25]: 10
- Corn plant response rating [10, 26]: 10
- Barnyardgrass plant response rating [11]: 70
- Rice plant response rating ([12]; 62 g ai/ha, scale 0 to 100): 0
- Rice plant response rating [12, 27]: 45
- Rice plant response rating [12, 28]: 55
- Plant response rating, Rice [12, 29]: 60
- Rice plant response rating (0 to 100 scale) ([13]; 125 g ai/ha): 30
- Plant response rating, Rice ([13]; 500 g ai/ha, visual rating): 50
- Plant response rating, Lambsquarters [14, 24]: 100
- Lambsquarters plant response rating [14, 25]: 30
- Lambsquarters plant response rating [14, 26]: 30
- Ducksalad plant response rating [15]: 90
- Blackgrass plant response rating ([16]; 125 g ai/ha): 10
- Blackgrass plant response rating ([16]; 500 g ai/ha): 20
- Foxtail, Giant plant response rating (0 to 100 scale) [17, 23]: 10
- Plant response rating, Foxtail, Giant [17, 24]: 90
- Foxtail, Giant plant response rating [17, 25]: 20
- Foxtail, Giant plant response rating [17, 26]: 30
- Oat, Wild plant response rating [18, 25]: 20
- Oat, Wild plant response rating [18, 26]: 20
- Sedge, Umbrella plant response rating ([19]; 62 g ai/ha, scale 0 to 100): 0
- Sedge, Umbrella plant response rating [19, 27]: 40
- Sedge, Umbrella plant response rating [19, 28]: 50
- Plant response rating, Sedge, Umbrella [19, 29]: 75
- Barnyardgrass plant response rating (0 to 100 scale) [20, 23]: 0
- Plant response rating, Barnyardgrass [20, 24]: 70
- Barnyardgrass plant response rating ([20]; 125 g ai/ha, visual rating): 0
- Barnyardgrass plant response rating ([20]; 500 g ai/ha, visual rating): 10
- Rice plant response rating [21]: 80
- Wheat plant response rating [22, 25]: 20
- Wheat plant response rating [22, 26]: 20
